Results as given in patent US20040259198A1, “Purified and isolated mat II beta subunit nucleic acids and polypeptides and therapeutic and screening methods using same” (priority 1999, published 2004).
Where two headings read alike, the source gives them in different places.

Columns and labels:
MAT II = assay: MAT activity and kinetics in extracts of transfected Cos-1 cells; assay type: biochemical, African green monkey; settings: for Km: Cos-1 cells expressing high levels of rα2, two kinetic forms, read-out: Km for L-Met, lower-Km kinetic form
Experimental: Transfection of Cos-1 cells with pTargeT™/MAT2A or pTargeT™/MAT2B was done using the cationic lipid reagent, Transfast™ (Promega). Preliminary experiments were carried out to optimize the transfection conditions. Typically, 1.5×10^6 cells were plated in 100 mm dish one day prior to transfection. For each plate, […] of vector DNA was applied in the ratio of 1:1 to Transfast™ in a protein-free medium for 2 h. For cells co-transfected with both α2 and β vectors, […] DNA from each was used. For each experiment, one untransfected plate served as a normal control, and a second plate was transfected with the pTargeT™ vector only (mock-transfected cells). After 48 h, cells were harvested by trypsinization with a solution containing 0.05% trypsin and 0.53 mM EDTA in Hank's balanced salt solution (HBSS, from Cellgro). Trypsinization was stopped by the addition of media supplemented with 10% FCS, cells were pelleted, washed three times in 1 ml HBSS, counted, then resuspended in 1× extraction buffer with protease inhibitors (50 mM Tris, pH 7.4, 100 mM NaCl, 5 mM MgCl2, 4 mM dithiothreitol, 0.1 IU/ml aprotinin, 0.5 mM PMSF and […] soybean trypsin inhibitor). Cells were lysed by three cycles of quick freezing and thawing, and the lysate was clarified by centrifugation at 15,000×g for 10 min at 4° C. If not immediately used; cell extracts were stored at −80° C. Protein assays were performed using the bicinchoninic acid reagent (Sigma) following the manufacturer instructions.
MAT activity in cell extracts was assayed as previously described (Kotb, M., and Kredich, N. M. (1985) J. Biol. Chem. 260, 3923-30). […] The concentration of L-Met was varied between […] using ^14C-L-Met (57.9 mCi/mmol) to a concentration of up to […], and supplementary with cold L-Met for higher concentrations.

MAT III = settings: cited from earlier work
MAT I = settings: cited from earlier work
[1] = target: T1, MAT II from human leukemic cells (Homo sapiens, UniProt P31153); settings: cited from earlier work
T1 construct: MAT II from human leukemic cells expressing both the α and β subunits of the enzyme; host or cells: human leukemic cells

Molecule: recombinant human MAT II α2: recombinant catalytic α2 subunit of human MAT II, encoded by MAT2A, His-tagged
- Km (MAT II; listed as rMAT II α2 protein): 15.1 µM
- Km (MAT II; listed as rα2): 15 µM
- effect on MAT (specific) activity (MAT II; expression in Cos-1 cells, result in words): markedly increased
- increase in MAT activity (MAT II; transfected Cos-1 cell extracts compared to untransfected (or mock-transfected) cells): 3-4 fold

Molecule: MAT III: hepatic MAT, dimer of the α1 catalytic subunit
- Km (MAT III; read-out: Km for L-Met): 100 to 200 µM

Molecule: MAT I: hepatic MAT, tetramer of the α1 catalytic subunit
- Km (MAT I; read-out: Km for L-Met): 3 to 14 µM

Molecule: C[S+](CC[C@H](N)C(=O)[O-])C[C@H]1O[C@@H](n2cnc3c(N)ncnc32)[C@H](O)[C@@H]1O (stereo partly shown) [AdoMet, S-adenosylmethionine, reference compound]
- inhibition of enzyme activity ([1]; 25 μM AdoMet and 30 μM PPi): 3 fold
- inhibition of enzyme activity ([1]; 25 μM AdoMet): ~2 fold
- effect of AdoMet on enzyme (MAT I): inhibited
- effect of AdoMet on enzyme (MAT III): activated
